In patent publication US20240018120A1, “MAGL INHIBITORS” (H. LUNDBECK A/S, priority 2020, published 2024):

Legend:
MAGL [1] = biological target: T1, MAGL (Homo sapiens, UniProt Q99685); test: In vitro competitive activity-based protein profiling, PC3 human cell membrane proteomes; format: biochemical; set-up: endogenous in cells; host or cells: PC3 human cells (membrane proteome); details: human PC3 membrane proteome; for inhibition at 1 µM: read-out: MAGL % inh. 1 μM (human PC3)
T1 sequence (Q99685 1-303): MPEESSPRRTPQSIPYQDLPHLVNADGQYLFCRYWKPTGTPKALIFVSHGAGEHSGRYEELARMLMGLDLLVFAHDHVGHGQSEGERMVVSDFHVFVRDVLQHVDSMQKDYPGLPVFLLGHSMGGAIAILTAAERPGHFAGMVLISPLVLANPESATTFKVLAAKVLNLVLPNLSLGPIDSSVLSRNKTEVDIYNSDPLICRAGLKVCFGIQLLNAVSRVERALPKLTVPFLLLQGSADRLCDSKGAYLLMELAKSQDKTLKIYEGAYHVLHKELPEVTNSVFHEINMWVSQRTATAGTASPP
Method in brief: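 Competitive ABPP in PC3 membrane proteome (2.0 mg/mL protein): inhibitors preincubated 30 min at 37° C, then JW912-Bodipy probe added for 30 min at room temperature. MAGL band fluorescence after SDS-PAGE normalised to DMSO; IC50 from 4-parameter sigmoidal fit.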

[2] = tested on: cryopreserved human hepatocytes; test: In vitro human hepatocyte stability; format: in vitro ADME; details: human hepatocytes 0.5×10^6 cells/mL, 1 μM
Procedure: The metabolic stability of test articles (1 μM) in commercially sourced, pooled donor, cryopreserved human hepatocytes (0.5×10^6 cells/mL) was determined in duplicate. The CLint reactions (250 μL) were initiated by addition of test compound. Aliquots (25 μL) were taken at 0, 15, 30, 45, 60, 90, 120 and 240 minutes and then protein crashed with ice-cold acetonitrile containing internal standard then centrifuged (3220 g for 25 minutes). Supernatant was used for LC-MS/MS analysis. The in vitro half-life (in vitro t½) was determined from the slope value: in vitro t1/2=−0.693/k. Conversion of the in vitro t1/2 (in min) into the scale-up unbound intrinsic clearance (Scaled-up unbound CLint, in mL/min/kg) was done using the following equation (mean of duplicate determinations), with data shown in Table 5: Scaled-up unbound CLint=kV/N×scaling factor. V=incubation volume (0.25 mL); N=number of hepatocytes per well ([…]). Scaling factors for in vivo intrinsic clearance prediction are listed below: […]

MAGL [3] = biological target: T1, MAGL; test: In vitro competitive substrate hydrolysis enzyme activity assay (pNPA), HEK293 cell lysates; format: biochemical; set-up: expressed in transfected cells; host or cells: HEK293; details: HEK293 lysate
Procedure: HEK293 cell lysates expressing recombinant human MAGL enzyme and 4-nitrophenyl acetate (pNPA) substrate were diluted separately in 50 mM HEPES (pH 7.0) containing 200 mM KCl and 1 mM EDTA. Lysates (50 μL, ˜1.2 μg total protein) were preincubated with varying concentrations of inhibitors at 25° C. After 30 min, 2×pNPA substrate (50 μL, 2.5 mM) was added and the rate of substrate turnover was monitored by measuring the increase in absorbance at wavelength 405 nm for 20 minutes at 25° C. using a Biotek Neo2 plate reader. The mean velocity was converted to percent enzyme activity following background subtraction and normalization to DMSO controls. IC50 values were determined by fitting percent enzyme activities to a non-linear regression, 4-parameter, sigmoidal dose response function in Prism GraphPad.

Compound | IC50 (MAGL [1]) | IC50 (MAGL [3]) | inhibition at 1 µM (MAGL [1]) | Scaled-up unbound CLint [2]
CP(C)(=O)c1ccc(NC(=O)C2CC23CCN(C(=O)OC(C(F)(F)F)C(F)(F)F)CC3)cn1 (single isomer, unassigned) [Example 20, 1,1,1,3,3,3-Hexafluoropropan-2-yl (R or S)-1-((6-(dimethylphosphoryl)pyridin-3-yl)carbamoyl)-6-azaspiro[2.5]octane-6-carboxylate] | 0.029 µM |  |  | 0.85 mL/min/kg
O=C(Nc1ccncc1)C1CC12CCN(C(=O)OC(C(F)(F)F)C(F)(F)F)CC2 (single isomer, unassigned) [Example 24, 1,1,1,3,3,3-Hexafluoropropan-2-yl (R or S)-1-(pyridin-4-ylcarbamoyl)-6-azaspiro[2.5]octane-6-carboxylate] | 0.0024 µM |  |  | 11.9 mL/min/kg
O=C(Nc1ccc(-n2cccn2)nc1)C1CC12CCN(C(=O)OC(C(F)(F)F)C(F)(F)F)CC2 (single isomer, unassigned) [Example 29, 1,1,1,3,3,3-Hexafluoropropan-2-yl (R or S)-1-((6-(1H-pyrazol-1-yl)pyridin-3-yl)carbamoyl)-6-azaspiro[2.5]octane-6-carboxylate] | 0.003 µM |  |  | 32.74 mL/min/kg
O=C(NCc1cccc(C(F)(F)F)n1)C1CC12CCN(C(=O)OC(C(F)(F)F)C(F)(F)F)CC2 (single isomer, unassigned) [Example 75, 1,1,1,3,3,3-hexafluoropropan-2-yl (R or S)-1-(((6-(trifluoromethyl)pyridin-2-yl)methyl)carbamoyl)-6-azaspiro[2.5]octane-6-carboxylate] |  | 0.00911 µM | 100% | 
O=C(NCc1cccc(C(F)(F)F)n1)C1CC12CCN(C(=O)OC(C(F)(F)F)C(F)(F)F)CC2 (single isomer, unassigned) [Example 76, 1,1,1,3,3,3-hexafluoropropan-2-yl (R or S)-1-(((6-(trifluoromethyl)pyridin-2-yl)methyl)carbamoyl)-6-azaspiro[2.5]octane-6-carboxylate] | 0.0035 µM | 0.00241 µM |  | 
O=C(Nc1ccc(C(F)(F)F)nc1)C1CC12CCN(C(=O)OC(C(F)(F)F)C(F)(F)F)CC2 (single isomer, unassigned) [Example 78, 1,1,1,3,3,3-hexafluoropropan-2-yl (R or S)-1-((6-(trifluoromethyl)pyridin-3-yl)carbamoyl)-6-azaspiro[2.5]octane-6-carboxylate] | 0.008 µM | 0.00299 µM |  | 
O=C(Nc1cncnc1)C1CC12CCN(C(=O)OC(C(F)(F)F)C(F)(F)F)CC2 (single isomer, unassigned) [Example 97, 1,1,1,3,3,3-hexafluoropropan-2-yl (R or S)-1-(pyrimidin-5-ylcarbamoyl)-6-azaspiro[2.5]octane-6-carboxylate] | 0.2 µM | 1.38 µM |  | 
Cc1cnc(NC(=O)C2CC23CCN(C(=O)OC(C(F)(F)F)C(F)(F)F)CC3)cn1 (single isomer, unassigned) [Example 112, 1,1,1,3,3,3-hexafluoropropan-2-yl (R or S)-1-((5-methylpyrazin-2-yl)carbamoyl)-6-azaspiro[2.5]octane-6-carboxylate] | 0.0042 µM |  |  | 9.59 mL/min/kg
O=C(NCC1CCOCC1)[C@H]1CC12CCN(C(=O)OC(C(F)(F)F)C(F)(F)F)CC2 (single isomer, unassigned) [Example 117] | 0.0047 µM |  |  | 20.55 mL/min/kg
O=C(Nc1cncs1)C1CC12CCN(C(=O)OC(C(F)(F)F)C(F)(F)F)CC2 (single isomer, unassigned) [Example 129, 1,1,1,3,3,3-hexafluoropropan-2-yl (R or S)-1-(thiazol-5-ylcarbamoyl)-6-azaspiro[2.5]octane-6-carboxylate] |  |  |  | 53.56 mL/min/kg

Continued, in another order:

IC50 (MAGL [1]) | IC50 (MAGL [3]) | inhibition at 1 µM (MAGL [1]) | Compound | Scaled-up unbound CLint [2]
0.00087 µM | 0.000864 µM | 100% | Cc1ccc(NC(=O)C2CC23CCN(C(=O)OC(C(F)(F)F)C(F)(F)F)CC3)cn1 (single isomer, unassigned) [Example 81, 1,1,1,3,3,3-hexafluoropropan-2-yl (R or S)-1-((6-methylpyridin-3-yl)carbamoyl)-6-azaspiro[2.5]octane-6-carboxylate] | 
0.0089 µM | 0.0101 µM | 100% | O=C(Nc1cccnc1C(F)(F)F)C1CC12CCN(C(=O)OC(C(F)(F)F)C(F)(F)F)CC2 (single isomer, unassigned) [Example 84, 1,1,1,3,3,3-hexafluoropropan-2-yl (R or S)-1-((2-(trifluoromethyl)pyridin-3-yl)carbamoyl)-6-azaspiro[2.5]octane-6-carboxylate] | 
0.099 µM | 0.167 µM |  | O=C(Nc1cccnc1C(F)(F)F)C1CC12CCN(C(=O)OC(C(F)(F)F)C(F)(F)F)CC2 (single isomer, unassigned) [Example 85, 1,1,1,3,3,3-hexafluoropropan-2-yl (R or S)-1-((2-(trifluoromethyl)pyridin-3-yl)carbamoyl)-6-azaspiro[2.5]octane-6-carboxylate] | 
0.2 µM | 0.463 µM | 100% | O=C(NCc1cccnc1)C1CC12CCN(C(=O)OC(C(F)(F)F)C(F)(F)F)CC2 (single isomer, unassigned) [Example 87, 1,1,1,3,3,3-hexafluoropropan-2-yl (R or S)-1-((pyridin-3-ylmethyl)carbamoyl)-6-azaspiro[2.5]octane-6-carboxylate] | 
0.0325 µM | 0.0718 µM |  | O=C(NCc1cccnc1)C1CC12CCN(C(=O)OC(C(F)(F)F)C(F)(F)F)CC2 (single isomer, unassigned) [Example 88, 1,1,1,3,3,3-hexafluoropropan-2-yl (R or S)-1-((pyridin-3-ylmethyl)carbamoyl)-6-azaspiro[2.5]octane-6-carboxylate] | 
0.0047 µM | 0.00579 µM | 100% | O=C(NC(=O)C1CC12CCN(C(=O)OC(C(F)(F)F)C(F)(F)F)CC2)C1CCCCC1 (single isomer, unassigned) [Example 90, 1,1,1,3,3,3-hexafluoropropan-2-yl (R or S)-1-((cyclohexanecarbonyl)carbamoyl)-6-azaspiro[2.5]octane-6-carboxylate] | 
0.0037 µM | 0.00599 µM |  | O=C(NC(=O)C1CC12CCN(C(=O)OC(C(F)(F)F)C(F)(F)F)CC2)C1CCCCC1 (single isomer, unassigned) [Example 91, 1,1,1,3,3,3-hexafluoropropan-2-yl (R or S)-1-((cyclohexanecarbonyl)carbamoyl)-6-azaspiro[2.5]octane-6-carboxylate] | 
 | 0.00284 µM | 100% | O=C(NC(=O)C1CC12CCN(C(=O)OC(C(F)(F)F)C(F)(F)F)CC2)c1ccccc1 (single isomer, unassigned) [Example 93, 1,1,1,3,3,3-hexafluoropropan-2-yl (R or S)-1-(benzoylcarbamoyl)-6-azaspiro[2.5]octane-6-carboxylate] | 
0.0051 µM | 0.00323 µM |  | O=C(NC(=O)C1CC12CCN(C(=O)OC(C(F)(F)F)C(F)(F)F)CC2)c1ccccc1 (single isomer, unassigned) [Example 94, 1,1,1,3,3,3-hexafluoropropan-2-yl (R or S)-1-(benzoylcarbamoyl)-6-azaspiro[2.5]octane-6-carboxylate] | 
0.0097 µM | 0.00552 µM |  | O=C(Nc1cnc(C(F)(F)F)nc1)C1CC12CCN(C(=O)OC(C(F)(F)F)C(F)(F)F)CC2 (single isomer, unassigned) [Example 99, 1,1,1,3,3,3-hexafluoropropan-2-yl (R or S)-1-((2-(trifluoromethyl)pyrimidin-5-yl)carbamoyl)-6-azaspiro[2.5]octane-6-carboxylate] | 
0.18 µM | 0.553 µM | 100% | O=C(Nc1cccnn1)[C@@H]1CC12CCN(C(=O)OC(C(F)(F)F)C(F)(F)F)CC2 [Example 5, 1,1,1,3,3,3-Hexafluoropropan-2-yl (R)-1-(pyridazin-3-ylcarbamoyl)-6-azaspiro[2.5]octane-6-carboxylate] | 
